Laboratory results taken from patent US20090030083A1, “Use of n-(2-aryl-propionyl)-sulfonamides for the treatment of spinal cord injury” (Dompe' pha.r.ma S.p.A, priority 2004, published 2009).

Assays:
[1] = tested on: SCI in the rat; assay: extension of post-traumatic cavity / spared tissue at lesion site (histology); assay type: in vivo; conditions: 28 days after SCI; for Percentage of spared tissue at lesion site (mean ± SE; n = 12), Lesion Epicenter: saline 39.8 ± 3.9; for Percentage of spared tissue at lesion site (mean ± SE; n = 12), Cavity Volume: saline 46.6 ± 3.1
Protocol: Adult Sprague-Dawley rats (females) weighing 240-260 g were maintained in the animal facilities under standard housing conditions (22±2° C., 65% humidity, artificial light from 06.00-20.00 h). A standard dry diet and water were available ad libitum. SCI in the rat was performed as previously reported (Gorio A. et al. Proc. Natl. Acad. Sci. USA 99, 9450-9455, 2002). The lesioning apparatus is computer controlled and free of the influence of gravity force. The force applied was 1N per 1 second. Extension of post-traumatic cavity was performed by classical histological techniques 28 days after SCI. […] The following days the animals were treated s.c. at 8 am and 5 pm until the 7th day after SCI. Animals were treated with compound of formula (III) (8 mg/kg) by i.v. injection within 30 minutes after SCI, then s.c. 24 hours after SCI. The following days the animals were treated s.c. every 36 hours until the 7th day after SCI.

[2] = tested on: CD68 positive cells; assay: leukocyte infiltration after SCI (CD68 positive cells); assay type: in vivo, rat; conditions: for Number of infiltrated leukocytes (mean ± SE; n = 8): 15 mg/kg i.v. then s.c.
Protocol: Adult Sprague-Dawley rats (females) weighing 240-260 g were maintained in the animal facilities under standard housing conditions (22±2° C., 65% humidity, artificial light from 06.00-20.00 h). A standard dry diet and water were available ad libitum. SCI in the rat was performed as previously reported (Gorio A. et al. Proc. Natl. Acad. Sci. USA 99, 9450-9455, 2002). The lesioning apparatus is computer controlled and free of the influence of gravity force. The force applied was 1N per 1 second. Leukocyte infiltration was quantitatively estimated by CD68 positive cells 1 and 7 days after SCI. […] The following days the animals were treated s.c. at 8 am and 5 pm until the 7th day after SCI. Animals were treated with compound of formula (III) (8 mg/kg) by i.v. injection within 30 minutes after SCI, then s.c. 24 hours after SCI. The following days the animals were treated s.c. every 36 hours until the 7th day after SCI.

[3] = tested on: oligodendrocytes; assay: apoptosis of oligodendrocytes after SCI (TUNEL); assay type: in vivo, rat; conditions: 28 days after SCI; for inhibition of oligodendrocyte apoptosis: vs saline; for Number of oligodendrocyte apoptic nuclei (mean ± SE; n = 12): gracilis and cuneatus fascicle, saline 14.9 ± 2
Protocol: Adult Sprague-Dawley rats (females) weighing 240-260 g were maintained in the animal facilities under standard housing conditions (22±2° C., 65% humidity, artificial light from 06.00-20.00 h). A standard dry diet and water were available ad libitum. SCI in the rat was performed as previously reported (Gorio A. et al. Proc. Natl. Acad. Sci. USA 99, 9450-9455, 2002). The lesioning apparatus is computer controlled and free of the influence of gravity force. The force applied was 1N per 1 second. Apoptosis of oligodendrocytes was determined at the level of the gracilis and cuneatus fascicle (3 mm rostrally from the site of contusion injury) 28 days after SCI using the terminal deoxynucleotidyltransferase-mediated dUTP and labeling (TUNEL) methodology. […] The following days the animals were treated s.c. at 8 am and 5 pm until the 7th day after SCI. Animals were treated with compound of formula (III) (8 mg/kg) by i.v. injection within 30 minutes after SCI, then s.c. 24 hours after SCI. The following days the animals were treated s.c. every 36 hours until the 7th day after SCI.

[4] = tested on: SCI in the rat; assay: free locomotion test (BBB scale) after SCI, i.v./s.c. injection; assay type: in vivo; conditions: i.v. within 30 minutes after SCI then s.c. until 7th day; (II) 15 mg/kg, (III) 8 mg/kg; FIG. 1 and 2
Protocol: Adult Sprague-Dawley rats (females) weighing 240-260 g were maintained in the animal facilities under standard housing conditions (22±2° C., 65% humidity, artificial light from 06.00-20.00 h). A standard dry diet and water were available ad libitum. […] The force applied was 1N per 1 second. Recovery from hind limb disability was evaluated by means of “free locomotion test” performed 24 hours, 4, 7, 11, 15, 19 and 27 days after SCI. The “free locomotion test” allows the detection of feet positioning, and joint rotation. The quality of functional recovery is quantitatively expressed according to the “BBB scale” developed at the Ohio University. Such a test allows the quantification of rat hind limb free locomotion deficits by observing their movements in an open space free of obstacles: 0—Lesioned rat cannot move either limbs 1—Small movement of a joint (heap or knee) From 2 to 6—Movement in progressive extension of the 3 joints 7—Good movement of the 3 joints 8—Animals walk without plantar support of the weight From 9 to 11—Animals walk from occasionally to progressively frequent with plantar support of the weight. 12—Occasional coordination of hind limbs and forelimbs during walk From 13 to 14—Progressive coordination with the forelimbs. 15—Consistent plantar support of weight and coordination during walk; occasional movement of fingers during advancement. […]

Row | Compound | tissue damage at the site of the lesion and extension of post-traumatic cavity, in words [1] | Percentage of spared tissue at lesion site (mean ± SE; n = 12), Lesion Epicenter [1] | Percentage of spared tissue at lesion site (mean ± SE; n = 12), Cavity Volume [1] | Number of infiltrated leukocytes (mean ± SE; n = 8) ([2]; Epicenter, 1 day from SCI, saline 125 ± 36) | Number of infiltrated leukocytes (mean ± SE; n = 8) ([2]; Epicenter, 7 days from SCI, saline 235 ± 54) | Number of infiltrated leukocytes (mean ± SE; n = 8) ([2]; Periphery, 1 day from SCI, saline 56 ± 13) | Number of infiltrated leukocytes (mean ± SE; n = 8) ([2]; Periphery, 7 days from SCI, saline 99 ± 32) | inhibition of leukocyte infiltration ([2]; at 24 hours and 7 days after SCI, vs saline) | inhibition of oligodendrocyte apoptosis [3] | Number of oligodendrocyte apoptic nuclei (mean ± SE; n = 12) [3] | functional hind limb recovery (motor score, BBB scale), in words [4]
1 | CC(C)Cc1ccc([C@@H](C)C(=O)NS(C)(=O)=O)cc1 [compound of formula (II), (R)-ibuprofen methanesulfonamide] | significantly reduced tissue damage | 48.9 ± 3.0 % | 58.2 ± 2.9 % | 24 ± 3 | 19 ± 3 | 3 ± 1 | 4 ± 2 | 80% | 85% | 2.1 ± 1.2 | –
2 | C[C@@H](C(=O)NS(C)(=O)=O)c1ccc(OS(=O)(=O)C(F)(F)F)cc1 [compound of formula (III), R-2-[(4′-trifluoromethanesulphonyloxy)phenyl]-N-methanesulfonyl propionamide] | significantly reduced tissue damage | 49.7 ± 4.2 % | 60.4 ± 4.3 % | – | – | – | – | – | 65% | 5.2 ± 3.8 | significantly promoted functional hind limb recovery
